From ChEMBL document CHEMBL3046589, “Synthesis and Fungicidal Activities of (-Methoxybenzyl) isoxazoles” (2000)

Experiments:
Assay type in all cases: functional
Myzus persicae [1] = test: Insecticidal activity against Myzus persicae (green peach aphid) nymphs fed with Chinese cabbage leaf assessed as mortality at 250 ppm applied through spraying measured after 48 hr
Myzus persicae [2] = test: Insecticidal activity against Myzus persicae (green peach aphid) nymphs fed with chinese cabbage leaf assessed as mortality at 15.6 ppm applied through spraying measured after 48 hr
[3] = test system: Pseudoperonospora cubensis; test: Preventive fungicidal activity against Pseudoperonospora cubensis infected cucumber leaves at 7.8 ppm after by foliar application method
Podosphaera fuliginea [4] = test: Curative fungicidal activity against Podosphaera fuliginea infected cucumber leaves at 31.3 ppm after by foliar application method
Myzus persicae [5] = test: Insecticidal activity against Myzus persicae (green peach aphid) nymphs fed with Chinese cabbage leaf assessed as mortality at 62.5 ppm applied through spraying measured after 48 hr
Podosphaera fuliginea [6] = test: Preventive fungicidal activity against Podosphaera fuliginea infected cucumber leaves at 31.3 ppm after by foliar application method
Podosphaera fuliginea [7] = test: Curative fungicidal activity against Podosphaera fuliginea infected cucumber leaves at 7.8 ppm after by foliar application method
Podosphaera fuliginea [8] = test: Preventive fungicidal activity against Podosphaera fuliginea infected cucumber leaves at 7.8 ppm after by foliar application method
[9] = test system: Pseudoperonospora cubensis; test: Preventive fungicidal activity against Pseudoperonospora cubensis infected cucumber leaves at 31.3 ppm after by foliar application method
[10] = test system: Pseudoperonospora cubensis; test: Curative fungicidal activity against Pseudoperonospora cubensis infected cucumber leaves at 31.3 ppm after by foliar application method
[11] = test system: Pseudoperonospora cubensis; test: Curative fungicidal activity against Pseudoperonospora cubensis infected cucumber leaves at 7.8 ppm after by foliar application method
[12] = test system: Pseudoperonospora cubensis; test: Preventive fungicidal activity against Pseudoperonospora cubensis infected cucumber leaves at 500 ppm after by foliar application method
Podosphaera fuliginea [13] = test: Preventive fungicidal activity against Podosphaera fuliginea infected cucumber leaves at 125 ppm after by foliar application method
Podosphaera fuliginea [14] = test: Preventive fungicidal activity against Podosphaera fuliginea infected cucumber leaves at 500 ppm after by foliar application method
[15] = test system: Pseudoperonospora cubensis; test: Preventive fungicidal activity against Pseudoperonospora cubensis infected cucumber leaves at 125 ppm after by foliar application method
Botrytis cinerea = test: Preventive fungicidal activity against Botryotinia fuckeliana infected cucumber leaves at 500 ppm after by foliar application method

Compound: COC(c1cc(C)no1)c1ccccc1/C=N/N=C(\C)c1ccc(Cl)c(Cl)c1 (stereo not drawn)
- mortality at 250 ppm (Myzus persicae [1]): 3%
- mortality at 15.6 ppm (Myzus persicae [2]): 0%
- Activity [3]: 30%
- Activity (Podosphaera fuliginea [4]): 70%
- mortality at 62.5 ppm (Myzus persicae [5]): 3%
- Activity (Podosphaera fuliginea [6]): 100%
- Activity (Podosphaera fuliginea [7]): 30%
- Activity (Podosphaera fuliginea [8]): 100%
- Activity [9]: 70%
- Activity [10]: 100%
- Activity [11]: 100%

Compound: CO/N=C(\c1ccon1)c1ccccc1COc1cc(C)ccc1C
- Activity [3]: 0%
- Activity (Podosphaera fuliginea [4]): 0%
- Activity (Podosphaera fuliginea [6]): 100%
- Activity (Podosphaera fuliginea [7]): 0%
- Activity (Podosphaera fuliginea [8]): 100%
- Activity [9]: 0%
- Activity [10]: 100%
- Activity [11]: 100%

Compound: COC(c1cc(C)no1)c1ccccc1/C=N/N=C(\C)c1cccc(Cl)c1 (stereo not drawn)
- Activity [12]: 50%

Compound: COC(c1cc(C)no1)c1ccccc1/C=N/N=C(\C)c1ccc(F)cc1 (stereo not drawn)
- Activity (Podosphaera fuliginea [13]): 90%
- Activity [12]: 50%

Compound: COC(c1cc(C)no1)c1ccccc1/C=N/N=C(\C)c1ccccc1Br (stereo not drawn)
- Activity (Podosphaera fuliginea [14]): 90%
- Activity [12]: 50%

Compound: COC(c1cc(C)no1)c1ccccc1/C=N/N=C(\C)c1ccc(Br)cc1 (stereo not drawn)
- Activity [3]: 50%
- Activity (Podosphaera fuliginea [4]): 70%
- Activity (Podosphaera fuliginea [6]): 100%
- Activity (Podosphaera fuliginea [7]): 50%
- Activity (Podosphaera fuliginea [8]): 100%
- Activity [9]: 70%
- Activity [10]: 100%
- Activity [11]: 100%

Compound: COC(c1cc(C)no1)c1ccccc1/C=N/N=C(\C)c1ccc(C)cc1 (stereo not drawn)
- Activity (Podosphaera fuliginea [6]): 90%
- Activity [12]: 50%

Compound: COc1ccc(/C(C)=N/N=C/c2ccccc2C(OC)c2cc(C)no2)cc1 (stereo not drawn)
- Activity (Podosphaera fuliginea [13]): 90%
- Activity [15]: 50%

Compound: COC(c1cc(C)no1)c1ccccc1/C=N/N=C(\C)c1ccc(C(F)(F)F)cc1 (stereo not drawn)
- mortality at 250 ppm (Myzus persicae [1]): 2%
- mortality at 15.6 ppm (Myzus persicae [2]): 0%
- mortality at 62.5 ppm (Myzus persicae [5]): 1%
- Activity (Podosphaera fuliginea [8]): 90%
- Activity [9]: 50%

Compound: COC(c1cc(C)no1)c1ccccc1/C=N/N=C(\C)c1ccc(OC(F)(F)F)cc1 (stereo not drawn)
- Activity [3]: 50%
- Activity (Podosphaera fuliginea [4]): 45%
- Activity (Podosphaera fuliginea [6]): 100%
- Activity (Podosphaera fuliginea [7]): 0%
- Activity (Podosphaera fuliginea [8]): 100%
- Activity [9]: 60%
- Activity [10]: 100%
- Activity [11]: 100%

Compound: COC(c1cc(C)no1)c1ccccc1/C=N/N=C(\C)c1ccc(Cl)cc1Cl (stereo not drawn)
- Activity (Podosphaera fuliginea [6]): 90%
- Activity [12]: 50%

Compound: COC(c1ccon1)c1ccccc1COc1cc(C)ccc1C (stereo not drawn)
- Activity (Podosphaera fuliginea [6]): 90%
- Activity [12]: 50%
- Activity (Botrytis cinerea): 50%

Compound: COC(c1cc(C)on1)c1ccccc1COc1cc(C)ccc1C (stereo not drawn)
- Activity (Podosphaera fuliginea [6]): 90%
- Activity [12]: 50%
- Activity (Botrytis cinerea): 50%

Compound: COC(c1cc(C)no1)c1ccccc1COc1cc(C)ccc1C (stereo not drawn)
- Activity (Podosphaera fuliginea [8]): 90%
- Activity [12]: 50%
- Activity (Botrytis cinerea): 50%

Compound: COC(c1ccccc1COc1cc(C)ccc1C)c1c(C)noc1C (stereo not drawn)
- Activity (Podosphaera fuliginea [14]): 90%
- Activity [12]: 50%
- Activity (Botrytis cinerea): 50%

Compound: COC(C1=NOCC1)c1ccccc1COc1cc(C)ccc1C (stereo not drawn)
- Activity (Podosphaera fuliginea [13]): 90%
- Activity [12]: 50%
- Activity (Botrytis cinerea): 50%

Compound: COC(c1ccccc1COc1cc(C)ccc1C)C1CC(C)=NO1 (stereo not drawn)
- Activity (Podosphaera fuliginea [14]): 90%
- Activity [12]: 50%
- Activity (Botrytis cinerea): 50%

Compound: COC(c1cc(C)no1)c1ccccc1Oc1ccccc1 (stereo not drawn)
- Activity [12]: 50%
- Activity (Botrytis cinerea): 50%

Compound: COC(c1cc(C)no1)c1ccccc1Oc1ncc(C(F)(F)F)cc1Cl (stereo not drawn)
- Activity [12]: 50%
- Activity (Botrytis cinerea): 50%

Compound: COC(c1cc(C)no1)c1ccccc1Oc1cc(Oc2ccccc2C#N)ncn1 (stereo not drawn)
- Activity (Podosphaera fuliginea [14]): 90%
- Activity [12]: 50%
- Activity (Botrytis cinerea): 50%

Compound: COC(c1cc(C)no1)c1ccccc1COc1ccccc1C (stereo not drawn)
- Activity (Podosphaera fuliginea [6]): 90%
- Activity [12]: 50%
- Activity (Botrytis cinerea): 50%

Compound: COC(c1cc(C)no1)c1ccccc1/C=C/c1ccc(Cl)cc1 (stereo not drawn)
- Activity (Podosphaera fuliginea [14]): 90%
- Activity [12]: 50%
- Activity (Botrytis cinerea): 50%

Compound: COC(c1cc(C)no1)c1ccccc1COc1ccc(C(F)(F)F)cn1 (stereo not drawn)
- Activity (Podosphaera fuliginea [13]): 90%
- Activity [12]: 50%
- Activity (Botrytis cinerea): 50%

Compound: COC(c1cc(C)no1)c1ccccc1COc1ncc(C(F)(F)F)cc1Cl (stereo not drawn)
- Activity (Podosphaera fuliginea [6]): 90%
- Activity [12]: 50%
- Activity (Botrytis cinerea): 50%

Compound: COC(c1cc(C)no1)c1ccccc1CO/N=C(\C)c1ccc(Cl)cc1 (stereo not drawn)
- Activity (Podosphaera fuliginea [6]): 90%
- Activity [12]: 50%
- Activity (Botrytis cinerea): 50%

Compound: COC(c1cc(C)no1)c1ccccc1CO/N=C(\SC)c1ccc(Cl)cc1 (stereo not drawn)
- Activity (Podosphaera fuliginea [13]): 90%
- Activity [12]: 50%
- Activity (Botrytis cinerea): 50%

Compound: COC(c1cc(C)no1)c1ccccc1/C=N/OC(C)c1ccc(Cl)cc1 (stereo not drawn)
- Activity (Podosphaera fuliginea [8]): 90%
- Activity [12]: 50%
- Activity (Botrytis cinerea): 50%

Compound: COC(c1cc(C)no1)c1ccccc1/C=N/N=C(\C)c1ccc(Cl)cc1 (stereo not drawn)
- mortality at 250 ppm (Myzus persicae [1]): 2%
- mortality at 15.6 ppm (Myzus persicae [2]): 0%
- mortality at 62.5 ppm (Myzus persicae [5]): 1%
- Activity (Podosphaera fuliginea [8]): 90%
- Activity [9]: 50%
- Activity (Botrytis cinerea): 50%

Compound: COC(c1cc(C)no1)c1ccccc1/C=N/N=C(\C)c1ccccc1 (stereo not drawn)
- Activity (Podosphaera fuliginea [14]): 90%
- Activity [12]: 50%

Compound: COC(c1cc(C)no1)c1ccccc1/C=N/N=C(\C)c1ccccc1Cl (stereo not drawn)
- Activity (Podosphaera fuliginea [14]): 90%
- Activity [12]: 50%

Compound: CC(C)C(C(=O)OC(C#N)c1cccc(Oc2ccccc2)c1)c1ccc(OC(F)F)cc1 (stereo not drawn) [FLUCYTHRINATE]
- mortality at 250 ppm (Myzus persicae [1]): 3%
- mortality at 15.6 ppm (Myzus persicae [2]): 3%
- mortality at 62.5 ppm (Myzus persicae [5]): 3%

Compound: CNC(=O)/C(=N/OC)c1ccccc1Oc1ccccc1 [METOMINOSTROBIN]
- Activity [3]: 40%
- Activity (Podosphaera fuliginea [4]): 40%
- Activity (Podosphaera fuliginea [6]): 100%
- Activity (Podosphaera fuliginea [7]): 0%
- Activity (Podosphaera fuliginea [8]): 70%
- Activity [9]: 60%
- Activity [10]: 97%
- Activity [11]: 70%
